Experimental data reported in patent US20220233502A1, “COMPOSITION FOR PREVENTING OR TREATING ASTHMA, RHINITIS OR CONJUNCTIVITIS, COMPRISING N-ACYL AMINO ACID AS ACTIVE INGREDIENT” (STEMDR INC., priority 2019, published 2022).
“Also recorded” adds a separate entry of the source.

Key:
Format in all cases: in vivo, BALB/c mice
[1] = system: asthma-induced mice (inflammatory cells in the airway); experiment: Inflammatory cells in bronchoalveolar lavage fluid of asthma-induced mice; details: OVA asthma mice; for inflow of eosinophils into the airway / WBC, bronchoalveolar lavage fluid: 3.5 μmol/kg oral once a day for 7 days from day 25; for inflow of eosinophils into the airway: result in words; for WBC Differential Counting (%) EOS (eosinophils) / WBC Differential Counting (%) MAC (macrophages) / WBC Differential Counting (%) MONO (monocytes) / WBC Differential Counting (%) NEU (neutrophils) / WBC Differential Counting (k/uL) EOS (eosinophils) / WBC Differential Counting (k/uL) MAC (macrophages) / WBC Differential Counting (k/uL) MONO (monocytes) / WBC Differential Counting (k/uL) NEU (neutrophils) / WBC, bronchoalveolar lavage fluid: mean, N=8; for WBC Differential Counting (%) EOS (eosinophils) / WBC Differential Counting (%) MAC (macrophages) / WBC Differential Counting (%) MONO (monocytes) / WBC Differential Counting (%) NEU (neutrophils) / WBC Differential Counting (k/uL) EOS (eosinophils) / WBC Differential Counting (k/uL) MAC (macrophages) / WBC Differential Counting (k/uL) MONO (monocytes) / WBC Differential Counting (k/uL) NEU (neutrophils): BAL fluid, 3.5 μmol/kg oral once a day for 7 days
Method: Specific pathogen-free BALB/c mice (6-week-old, male) were purchased from Doul Biotech (Osan, Korea). Experiment was started when the mice were 7- to 10-week old. The mice were housed in a laminar flow cabinet and were given water and feed ad libitum. The mice were sensitized by intraperitoneally injecting 0.02 mg of ovalbumin (OVA) and alum (1 mg) (Sigma-Aldrich) as an immunologic adjuvant twice on days 0 and 14. For 4 days from day 28, the mice were placed in a plastic nebulizer container of a regular size and were made to inhale OVA in the form of an aerosol by spraying 5% OVA for 30 minutes (airway challenge). After anesthetizing the mouse and inserting a tube into the bronchus, the bronchus was washed with a buffer and cells were obtained therefrom. The cells were centrifuged, suspended at 1×10^4 cells/100 μL, and fixed by centrifuging with a cytospin. Then, the number of eosinophils, monocytes, neutrophils and macrophages were measured by staining with Diff-Quik. Neutrophils, macrophages, monocytes and eosinophils were observed as inflammatory cells in the airway. Each of N-acetyl-L-alanine, N-oleoyl-L-alanine, N-acetyl-L-tryptophan and N-oleoyl-L-tryptophan was dissolved in 10 mL of phosphate-buffered saline to 3.5 μmol/kg and was orally administered for 7 days from day 25, once a day.

[2] = system: asthma-induced mice (lung tissue); experiment: H&E staining of lung tissue, degree of inflammation; details: OVA asthma mice; oral administration for a week; vs OVA-challenged group; FIG. 1
Method: (§1) Specific pathogen-free BALB/c mice (6-week-old, male) were purchased from Doul Biotech (Osan, Korea). Experiment was started when the mice were 7- to 10-week old. The mice were housed in a laminar flow cabinet and were given water and feed ad libitum.
(§2) The mice were sensitized by intraperitoneally injecting 0.02 mg of ovalbumin (OVA) and alum (1 mg) (Sigma-Aldrich) as an immunologic adjuvant twice on days 0 and 14. For 4 days from day 28, the mice were placed in a plastic nebulizer container of a regular size and were made to inhale OVA in the form of an aerosol by spraying 5% OVA for 30 minutes (airway challenge).
(§3) For histological assay, tissues taken out from the lung were fixed with formalin and embedded in paraffin. The embedded tissue was sliced to 4-μm thickness and subjected to 1) hematoxylin and eosin (H&E) staining for investigation of the degree of inflammation and 2) Masson's trichrome staining for investigation of the degree of pulmonary fibrosis.
Lung tissue was stained with H&E after oral administration of the drug for a week.

[3] = system: asthma-induced mice (lung tissue); experiment: Masson's trichrome staining of lung tissue, degree of fibrosis around the airway; details: OVA asthma mice; oral administration for a week; vs OVA-challenged group; FIG. 2
Method: as §1, §2, §3
Lung tissue was stained with Masson's trichrome after oral administration of the drug for a week.

IL-4 = experiment: Th2 cytokine IL-4 in bronchial wash (ELISA); details: OVA asthma mice; 3.5 μmol/kg oral once a day for 7 days from day 25; FIG. 3
Method: as §1, §2
(§4) The concentration of several cytokines (TNF-α, IL-4, IL-5, IL-13) in bronchial wash was measured using an ELISA kit (R&D Systems, Minneapolis, Minn., USA).
(§5) Th2 cytokines, IL-4, IL-5 and IL-13, are known to be involved in airway inflammation, bronchial hypersensitivity and IgE antibody production mediated by eosinophils. 3.5 μmol/kg N-acetyl-L-alanine, N-oleoyl-L-alanine, N-acetyl-L-tryptophan or N-oleoyl-L-tryptophan dissolved in 10 mL of phosphate-buffered saline was orally administered once a day, for 7 days from day 25 after the induction of asthma, and the cytokines were measured.

IL-5 = experiment: Th2 cytokine IL-5 in bronchial wash (ELISA); details: OVA asthma mice; 3.5 μmol/kg oral once a day for 7 days from day 25; FIG. 4
Method: as §1, §2, §4, §5

IL-13 = experiment: Th2 cytokine IL-13 in bronchial wash (ELISA); details: OVA asthma mice; 3.5 μmol/kg oral once a day for 7 days from day 25; FIG. 5
Method: as §1, §2, §4, §5

rhinitis-induced mice = experiment: OVA-induced allergic rhinitis, nasal rubbing and sneezing; details: 10 μL of 10 μM intranasally; for number of nasal rubbing: counted for 15 minutes on day 27, FIG. 6A; for number of sneezing: counted for 15 minutes on day 27, FIG. 6B
Method: as §1
The mice were sensitized by intraperitoneally injecting 0.02 mg of ovalbumin (OVA) and alum (1 mg) (Sigma-Aldrich) as an immunologic adjuvant twice on days 0 and 14. For 7 days from day 21, the mice were topically stimulated by injecting 10 μL of a solution of 100 μg of OVA dissolved in 20 μL of phosphate-buffered saline into both nasal cavities, once a day. After the final injection of OVA (day 27), symptom score was recorded by summing the numbers of nasal rubbing and sneezing. The symptom score was recorded for 15 minutes, and the result was compared between the groups.
Ovalbumin (OVA) of Preparation Example 3 was used as an antigen to induce allergic rhinitis. After OVA challenging from day 21 to day 26, 10 μL of each of N-acetyl-L-alanine, N-oleoyl-L-alanine, N-acetyl-L-tryptophan and N-oleoyl-L-tryptophan dissolved in phosphate-buffered saline to 10 μM was intranasally administered 12 hours later. After the final injection of OVA (day 27), symptom score was recorded by summing the numbers of nasal rubbing and sneezing. The symptom score was recorded for 15 minutes, and the result was compared between the groups.

[4] = system: conjunctivitis-induced mice; experiment: OVA-induced conjunctivitis, clinical grading of conjunctival edema and flare; details: 10 μL of 100 μM intraocularly 30 minutes and 12 hours after challenge, scale 0 to 4+, FIG. 7
Method: as §1
The mice were sensitized by intraperitoneally injecting 0.02 mg of ovalbumin (OVA) and alum (1.5 mg) (Sigma-Aldrich) as an immunologic adjuvant twice on days 0 and 7. For 12 days from day 14, conjunctivitis was induced by injecting 10 μL of a solution of 100 μg of OVA dissolved in 20 μL of phosphate-buffered saline into each eye, once a day.
24 hours after the final injection of OVA (day 25), the clinical grading of conjunctival edema and flare (redness) was assessed using a portable slit lamp (Carl Zeiss, Oberkochen, Germany). The assessment was performed in a blinded fashion 2 hours after OVA injection. Each clinical parameter was scored on a scale of 0 to 4+(0 absent, 1+minimal, 2+mild, 3+moderate, 4+severe) as described in Merayo-Lloves, J., Calonge, M, and Foster, C. S. 1995. Experimental model of allergic conjunctivitis to ragweed in guinea pig. Curr. Eye Res. 14: 487-494. A negative control group was given no treatment.
Ovalbumin of Preparation Example 4 was used as an antigen to induce conjunctivitis. After challenging 100 μg of ovalbumin into the eye from day 15 to 26, 10 μL of each of N-acetyl-L-alanine, N-oleoyl-L-alanine, N-acetyl-L-tryptophan and N-oleoyl-L-tryptophan dissolved in phosphate-buffered saline to 100 μM was intraocularly administered 30 minutes and 12 hours later. On day 26, the clinical grading of conjunctival edema and flare (redness) was assessed using a portable slit lamp (Carl Zeiss, Oberkochen, Germany).

SMILES | inflow of eosinophils into the airway [1] | WBC Differential Counting (%) EOS (eosinophils) [1] [%] | WBC Differential Counting (%) MAC (macrophages) [1] [%] | WBC Differential Counting (%) MONO (monocytes) [1] [%] | WBC Differential Counting (%) NEU (neutrophils) [1] [%] | WBC Differential Counting (k/uL) EOS (eosinophils) [1] [k/uL] | WBC Differential Counting (k/uL) MAC (macrophages) [1] [k/uL] | WBC Differential Counting (k/uL) MONO (monocytes) [1] [k/uL] | WBC Differential Counting (k/uL) NEU (neutrophils) [1] [k/uL] | WBC, bronchoalveolar lavage fluid [1] | inflammation around the airway, H&E staining of lung tissue [2] | fibrosis around the airway, Masson's trichrome staining of lung tissue [3] | IL-4 secretion in airway (IL-4) | IL-5 secretion in airway (IL-5) | IL-13 secretion in airway (IL-13) | number of nasal rubbing (rhinitis-induced mice) | number of sneezing (rhinitis-induced mice) | clinical grade of conjunctivitis (conjunctival edema and flare) [4]
CC(=O)N[C@@H](C)C(=O)O [NAA, N-acetyl-L-alanine] | significantly inhibited | 10.1 | 81.8 | 3.3 | 4.9 | 0.04 | 0.32 | 0.01 | 0.02 | 0.39 ×10^2 cells/μL | remarkably inhibited inflammation | inhibited fibrosis | significantly inhibited | significantly inhibited | significantly inhibited | remarkably decreased | remarkably decreased | remarkably increased clinical grades
CC(=O)N[C@@H](Cc1c[nH]c2ccccc12)C(=O)O [NAT, N-acetyl-L-tryptophan] | significantly inhibited | 20.1 | 71.8 | 3.9 | 4.1 | 0.10 | 0.33 | 0.02 | 0.02 | 0.47 ×10^2 cells/μL | remarkably inhibited inflammation | inhibited fibrosis | significantly inhibited | significantly inhibited | significantly inhibited | remarkably decreased | remarkably decreased | remarkably increased clinical grades
CCCCCCCC/C=C\CCCCCCCC(=O)N[C@@H](C)C(=O)O [NOA, N-oleoyl-L-alanine] | significantly inhibited | 3.4 | 87.3 | 3.8 | 5.5 | 0.01 | 0.34 | 0.01 | 0.02 | 0.38 ×10^2 cells/μL | remarkably inhibited inflammation; also recorded: highest inhibition of inflammation | inhibited fibrosis; also recorded: highest inhibition | significantly inhibited | significantly inhibited | significantly inhibited | remarkably decreased | remarkably decreased | remarkably increased clinical grades
CCCCCCCC/C=C\CCCCCCCC(=O)N[C@@H](Cc1c[nH]c2ccccc12)C(=O)O [NOT, N-oleoyl-L-tryptophan] | significantly inhibited | 17.0 | 74.3 | 3.6 | 5.1 | 0.07 | 0.32 | 0.01 | 0.02 | 0.43 ×10^2 cells/μL | remarkably inhibited inflammation | inhibited fibrosis | significantly inhibited | significantly inhibited | significantly inhibited | remarkably decreased | remarkably decreased | remarkably increased clinical grades
